Data published in the NIST ThermoML archive (doi:10.1021/je700486g).
Numbers after ± are expanded uncertainties.

Conditions: Crystal; visual observation

Q: For O=C(O)c1ccccc1O [2-hydroxybenzoic acid], which Normal melting temperature is on record?
A: Its Normal melting temperature is 159 ± 1 °C.

Q: Which Normal melting temperature does the source give for c1ccc2c(c1)-c1cccc3cccc-2c13 [fluoranthene] here?
A: Its Normal melting temperature is 108.4 ± 3 °C.

Q: Which Normal melting temperature does the source give for O=C(O)c1ccccc1 [benzoic acid] here?
A: Its Normal melting temperature is 122 ± 1 °C.

Q: For CC(=O)Oc1ccccc1C(=O)O [2-acetoxybenzoic acid], which Normal melting temperature is on record?
A: Its Normal melting temperature is 135.4 ± 1.1 °C.
